Reference: US20250176599A1, “FLAVOR COMPOSITION AND FOOD AND BEVERAGE” (TAKASAGO INTERNATIONAL CORPORATION, priority 2021, published 2025)

Columns and labels:
[1] = Overall conclusion of the sensory evaluation across aqueous solutions I to VI
Method in brief: (§1)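 Eight trained panelists tasted water solutions of the off-flavor compounds spiked with nootkatone. Masking-agent taste was scored absolutely from 0 (not sensed) to 4 (strong). Off-flavor was scored relatively, anchored at 4 for the solution without masker and 0 for ion-exchanged water.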

[2] = Sensory evaluation of aqueous solution III containing 1-octen-3-one 1 ppb: off-flavor intensity and masking component intensity; details: average panel score
Method in brief: as §1

[3] = Sensory evaluation of aqueous solution IV containing 1,5-octadien-3-one 100 ppt: off-flavor intensity and masking component intensity; details: aqueous solution IV, average panel score
Method in brief: as §1

[4] = Sensory evaluation of aqueous solution I containing (E)-2-nonenal 1 ppb: off-flavor intensity and masking component intensity; details: average panel score
Method in brief: as §1

[5] = Sensory evaluation of aqueous solution VI containing 1,5-octadien-3-ol 10 ppb: off-flavor intensity and masking component intensity; details: aqueous solution VI, average panel score
Method in brief: as §1

[6] = Sensory evaluation of aqueous solution II containing (E)-2-octenal 10 ppb: off-flavor intensity and masking component intensity; details: average panel score
Method in brief: as §1

[7] = Sensory evaluation of aqueous solution V containing 1-octen-3-ol 10 ppb: off-flavor intensity and masking component intensity; details: average panel score
Method in brief: as §1

CC(=O)/C(C)=C/C1C(C)=CCCC1(C)C (centres unmarked) [γ-methyl ionone]
concentration that masks the off-flavor and does not affect the flavor of the food and/or beverage itself, lower limit [1]: ≥ 1 ppt | concentration that masks the off-flavor and does not affect the flavor of the food and/or beverage itself, upper limit [1]: ≤ 10 ppb | Masking Component Intensity ([2]; 0.01 ppt added): 0.3 | Off-Flavor Intensity ([2]; 0.01 ppt added): 3.4 | Masking Component Intensity ([2]; 0.1 ppt added): 0.3 | Off-Flavor Intensity ([2]; 0.1 ppt added): 3.3 | Masking Component Intensity ([2]; 1 ppb added): 1.6 | Off-Flavor Intensity ([2]; 1 ppb added): 2.0 | Masking Component Intensity ([2]; 1 ppm added): 4.0 | Off-Flavor Intensity ([2]; 1 ppm added): 0.3 | Masking Component Intensity ([2]; 1 ppt added): 0.4 | Off-Flavor Intensity ([2]; 1 ppt added): 3.1 | Masking Component Intensity ([2]; 10 ppb added): 2.5 | Off-Flavor Intensity ([2]; 10 ppb added): 1.5 | Masking Component Intensity ([2]; 10 ppt added): 0.6 | Off-Flavor Intensity ([2]; 10 ppt added): 2.8 | Masking Component Intensity ([2]; 100 ppb added): 3.5 | Off-Flavor Intensity ([2]; 100 ppb added): 1.1 | Masking Component Intensity ([2]; 100 ppt added): 0.9 | Off-Flavor Intensity ([2]; 100 ppt added): 2.4 | Masking Component Intensity ([3]; 0.01 ppt added): 0.0 | Off-Flavor Intensity ([3]; 0.01 ppt added): 3.8 | Masking Component Intensity ([3]; 0.1 ppt added): 0.0 | Off-Flavor Intensity ([3]; 0.1 ppt added): 3.5 | Masking Component Intensity ([3]; 1 ppb added): 1.5 | Off-Flavor Intensity ([3]; 1 ppb added): 2.1 | Masking Component Intensity ([3]; 1 ppm added): 4.0 | Off-Flavor Intensity ([3]; 1 ppm added): 0.6 | Masking Component Intensity ([3]; 1 ppt added): 0.3 | Off-Flavor Intensity ([3]; 1 ppt added): 3.4 | Masking Component Intensity ([3]; 10 ppb added): 2.3 | Off-Flavor Intensity ([3]; 10 ppb added): 1.6 | Masking Component Intensity ([3]; 10 ppt added): 0.5 | Off-Flavor Intensity ([3]; 10 ppt added): 3.3 | Masking Component Intensity ([3]; 100 ppb added): 3.4 | Off-Flavor Intensity ([3]; 100 ppb added): 1.0 | Masking Component Intensity ([3]; 100 ppt added): 0.6 | Off-Flavor Intensity ([3]; 100 ppt added): 2.8 | Masking Component Intensity ([4]; 0.01 ppt added): 0.3 | Off-Flavor Intensity ([4]; 0.01 ppt added): 3.8 | Masking Component Intensity ([4]; 0.1 ppt added): 0.6 | Off-Flavor Intensity ([4]; 0.1 ppt added): 3.4 | Masking Component Intensity ([4]; 1 ppb added): 2.0 | Off-Flavor Intensity ([4]; 1 ppb added): 2.1 | Masking Component Intensity ([4]; 1 ppm added): 4.0 | Off-Flavor Intensity ([4]; 1 ppm added): 0.3 | Masking Component Intensity ([4]; 1 ppt added): 0.8 | Off-Flavor Intensity ([4]; 1 ppt added): 3.1 | Masking Component Intensity ([4]; 10 ppb added): 2.5 | Off-Flavor Intensity ([4]; 10 ppb added): 1.6 | Masking Component Intensity ([4]; 10 ppt added): 1.1 | Off-Flavor Intensity ([4]; 10 ppt added): 2.5 | Masking Component Intensity ([4]; 100 ppb added): 3.5 | Off-Flavor Intensity ([4]; 100 ppb added): 1.0 | Masking Component Intensity ([4]; 100 ppt added): 1.5 | Off-Flavor Intensity ([4]; 100 ppt added): 2.4 | Masking Component Intensity ([5]; 0.01 ppt added): 0.4 | Off-Flavor Intensity ([5]; 0.01 ppt added): 3.1 | Masking Component Intensity ([5]; 0.1 ppt added): 0.9 | Off-Flavor Intensity ([5]; 0.1 ppt added): 3.1 | Masking Component Intensity ([5]; 1 ppb added): 1.9 | Off-Flavor Intensity ([5]; 1 ppb added): 1.9 | Masking Component Intensity ([5]; 1 ppm added): 4.0 | Off-Flavor Intensity ([5]; 1 ppm added): 0.5 | Masking Component Intensity ([5]; 1 ppt added): 1.0 | Off-Flavor Intensity ([5]; 1 ppt added): 2.8 | Masking Component Intensity ([5]; 10 ppb added): 2.8 | Off-Flavor Intensity ([5]; 10 ppb added): 1.3 | Masking Component Intensity ([5]; 10 ppt added): 1.3 | Off-Flavor Intensity ([5]; 10 ppt added): 2.4 | Masking Component Intensity ([5]; 100 ppb added): 3.4 | Off-Flavor Intensity ([5]; 100 ppb added): 0.9 | Masking Component Intensity ([5]; 100 ppt added): 1.6 | Off-Flavor Intensity ([5]; 100 ppt added): 2.1 | Masking Component Intensity ([6]; 0.01 ppt added): 0.4 | Off-Flavor Intensity ([6]; 0.01 ppt added): 3.3 | Masking Component Intensity ([6]; 0.1 ppt added): 0.5 | Off-Flavor Intensity ([6]; 0.1 ppt added): 3.1 | Masking Component Intensity ([6]; 1 ppb added): 2.1 | Off-Flavor Intensity ([6]; 1 ppb added): 1.5 | Masking Component Intensity ([6]; 1 ppm added): 4.0 | Off-Flavor Intensity ([6]; 1 ppm added): 0.3 | Masking Component Intensity ([6]; 1 ppt added): 0.8 | Off-Flavor Intensity ([6]; 1 ppt added): 2.8 | Masking Component Intensity ([6]; 10 ppb added): 2.8 | Off-Flavor Intensity ([6]; 10 ppb added): 1.1 | Masking Component Intensity ([6]; 10 ppt added): 1.3 | Off-Flavor Intensity ([6]; 10 ppt added): 2.5 | Masking Component Intensity ([6]; 100 ppb added): 3.8 | Off-Flavor Intensity ([6]; 100 ppb added): 0.6 | Masking Component Intensity ([6]; 100 ppt added): 1.5 | Off-Flavor Intensity ([6]; 100 ppt added): 2.0 | Masking Component Intensity ([7]; 0.01 ppt added): 0.0 | Off-Flavor Intensity ([7]; 0.01 ppt added): 3.5 | Masking Component Intensity ([7]; 0.1 ppt added): 0.4 | Off-Flavor Intensity ([7]; 0.1 ppt added): 3.3 | Masking Component Intensity ([7]; 1 ppb added): 2.3 | Off-Flavor Intensity ([7]; 1 ppb added): 1.9 | Masking Component Intensity ([7]; 1 ppm added): 4.0 | Off-Flavor Intensity ([7]; 1 ppm added): 0.1 | Masking Component Intensity ([7]; 1 ppt added): 0.4 | Off-Flavor Intensity ([7]; 1 ppt added): 3.3 | Masking Component Intensity ([7]; 10 ppb added): 2.9 | Off-Flavor Intensity ([7]; 10 ppb added): 1.5 | Masking Component Intensity ([7]; 10 ppt added): 1.0 | Off-Flavor Intensity ([7]; 10 ppt added): 2.6 | Masking Component Intensity ([7]; 100 ppb added): 3.8 | Off-Flavor Intensity ([7]; 100 ppb added): 0.8 | Masking Component Intensity ([7]; 100 ppt added): 1.4 | Off-Flavor Intensity ([7]; 100 ppt added): 2.1
